Reference: BindingDB's records for doi:10.7270/Q2TX3CTT (Broad Institute, 2010)

Target: Glycogen synthase kinase-3 beta (Homo sapiens, UniProt P49841)
Test: GSK3beta kinase inhibitor potency, dose response, biochemical, luminescence, cell-free homogeneous, retest (AID 434954)

Chain of Glycogen synthase kinase-3 beta (P49841 whole entry): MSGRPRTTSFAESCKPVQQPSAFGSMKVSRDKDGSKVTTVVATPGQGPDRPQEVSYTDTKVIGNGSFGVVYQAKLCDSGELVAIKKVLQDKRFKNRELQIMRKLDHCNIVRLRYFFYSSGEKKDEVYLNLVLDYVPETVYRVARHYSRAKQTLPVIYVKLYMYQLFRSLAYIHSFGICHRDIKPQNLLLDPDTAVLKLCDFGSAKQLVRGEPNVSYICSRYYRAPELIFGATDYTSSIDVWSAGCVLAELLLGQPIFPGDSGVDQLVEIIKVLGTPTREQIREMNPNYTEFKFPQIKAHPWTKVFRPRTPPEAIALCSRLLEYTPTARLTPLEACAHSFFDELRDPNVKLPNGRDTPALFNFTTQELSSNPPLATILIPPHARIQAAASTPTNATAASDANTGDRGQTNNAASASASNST

Compound	EC50 [µM]
CSc1nnc2ccc(-c3cccs3)nn12 [SMR000324231]	> 300
CCc1ccccc1NC(=O)CSc1nnc(-c2ccncc2)o1 [SMR000324383]	> 300
CC(C)Nc1nc(-c2ccncc2)nc(-c2ccc(Cl)cc2)c1C#N [SMR000333194]	> 300
CC(C)(C)Sc1ccc(CN=O)cc1[N+](=O)[O-] [SMR000335018]	23.6
COc1ccc(NC(=O)c2ccc(-c3ccc(OC)cc3)s2)cc1 [SMR000335035]	> 300
CN1CCN(CCC2Oc3cc([N+](=O)[O-])ccc3NC2=O)CC1 (stereo unspecified) [SMR000336558]	> 300
O=C(Nc1cccc(Cl)c1)Nc1ccnc(-c2cccnc2)n1 [SMR000337179]	> 300
CCOCCOC(=O)c1ccc(-n2cnc(C)n2)nc1 [SMR000337218]	> 300
COc1ccc(-n2nc3c(N)n[nH]c3cc2=O)cc1 [SMR000337768]	14.1
Cc1[nH]nc2c1C(c1ccc(N(C)C)cc1)C1C(=O)CC(C)(C)CC1=N2 (stereo unspecified) [SMR000343282]	28
CN1CCN(/N=C2\C(=O)Nc3ccc([N+](=O)[O-])cc32)CC1 [SMR000347605]	6.11
COc1cccc(C2c3c(n[nH]c3C)N=C3CC(C)(C)CC(=O)C32)c1 (stereo unspecified) [SMR000347812]	0.958
CN(c1ncnc(N)c1[N+](=O)[O-])C1CCS(=O)(=O)C1 (stereo unspecified) [SMR000347974]	28.2
COc1cc(NC(=O)COC(=O)CCc2cc(OC)c(OC)c(OC)c2)cc(OC)c1 [SMR000349752]	> 300
O=C(c1ccc(Cl)nc1)N1CCN(C/C=C/c2ccccc2)CC1 [SMR000352615]	> 300
COc1ccc(C2c3c(n[nH]c3C)N=C3CCCC(=O)C32)cc1OC (stereo unspecified) [SMR000353889]	> 300
CCN1/C(=C/C(C)=C/c2sc3ccccc3[n+]2CC)Sc2ccccc21 [SMR000354813]	24.7
CCCCC(=O)Nc1nc2c(OC)cc([N+](=O)[O-])cc2s1 [SMR000363192]	> 300
COc1cc(/C=C/c2nc3ccc([N+](=O)[O-])cc3s2)ccc1OCC(=O)O [SMR000365317]	> 300
O=C1Nc2ccc([N+](=O)[O-])cc2C1=NNC1CS(=O)(=O)CC1O (stereo unspecified) [SMR000368316]	23
CCN(CC)S(=O)(=O)c1cccc(-n2cc(O)c(-c3ccccc3)c2N)c1 [SMR000368326]	> 300
COc1ccc(Nc2ccccc2C(=O)O)cc1 [SMR000370544]	> 300

Compound	EC50 [µM]
O=NCc1cn(CCC(=O)O)nc1-c1cccc([N+](=O)[O-])c1 [SMR000371064]	7.38
COc1ccc(-c2nn(-c3ccccc3)cc2CN=Nc2ccc(Cl)c(C(=O)O)c2)cc1OC [SMR000371971]	> 300
O=C(O)c1ccccc1Nc1ccc(OC(F)F)cc1 [SMR000372165]	> 300
N#CCCn1cc(C(=O)O)c(-c2cccc([N+](=O)[O-])c2)n1 [SMR000372597]	> 300
CC(C)Nc1nnc(SCC(=O)NCc2ccc3c(c2)OCO3)s1 [SMR000375706]	> 300
CN(C)C(CNC(=O)c1ccc2ccccc2c1)c1ccco1 (stereo unspecified) [SMR000377096]	> 300
COCCn1c(SCC(=O)Nc2ccccc2OC)nc2ccccc21 [SMR000377677]	> 300
O=Cc1ccc(N2CCCC2)c([N+](=O)[O-])c1 [SMR000383989]	> 300
CC(=O)Nc1cccc(Nc2nc(-c3ccccc3)nc3ccccc23)c1 [SMR000384461]	> 300
c1cncc(-c2nc(NCCCn3ccnc3)c3ccccc3n2)c1 [SMR000384722]	30.7
Cc1ccc2c(c1)C1CN(C)CCC1N2C(=S)Nc1ccc(Cl)cc1Cl (stereo unspecified) [SMR000385491]	> 300
O=C(C1=C[C@@H](c2ccc(C(F)(F)F)cc2)C[C@@H](OCCCCO)O1)N1CCN(Cc2ccccc2)CC1 [SMR000389639]	> 300
N#Cc1c(N)n(-c2cccc(O)c2)c2nc3ccccc3nc12 [SMR000413688]	> 300
CCN1C(=O)/C(=N\NC(=O)C(O)c2ccccc2)c2ccccc21 (stereo unspecified) [SMR000414657]	32.4
COc1cc(C=C2SC(Nc3ccc(O)cc3)=NC2=O)cc(OC)c1OC [SMR000414809]	> 300
O=C1/C(=C/C=C/c2ccccc2)Oc2c1ccc(O)c2CN1CCN(CCO)CC1 [SMR000415785]	> 300
O=C(O)c1ccc(N=NCc2ccc(-c3cccc(Cl)c3)o2)cc1 [SMR000415894]	> 300
Cc1ccc(-n2c(=O)c3c4c(sc3n3c(S)nnc23)CCC4)cc1 [SMR000419881]	44.5
CC[n+]1c(/C=C/C=C/c2ccc(N(C)C)cc2)sc2ccccc21 [SMR000420206]	35.1
Nc1nnc(CC(=O)NN=Cc2ccccc2OCc2ccc(F)cc2)s1 [SMR000420435]	> 300
O=C(Cc1ccc(Br)cc1)Nc1ncc([N+](=O)[O-])s1 [SMR000429978]	4.3
COc1ccc2nc(Cl)cc(Cl)c2c1 [SMR000430028]	> 300

Compound	EC50 [µM]
Cc1ccc(C(=O)NN=Cc2ccc(-c3ccc(Cl)c(Cl)c3)o2)cn1 [SMR000431370]	> 300
Cc1ccc(C(=O)N/N=C/c2ccc(-c3ccc([N+](=O)[O-])cc3)o2)cn1 [SMR000431371]	> 300
CNc1nc(N)c([N+](=O)[O-])c(Nc2cccc(Cl)c2)n1 [SMR000434546]	11.7
Nc1nc(NCC2CCCO2)nc(Nc2cccc(Cl)c2)c1[N+](=O)[O-] (stereo unspecified) [SMR000434547]	> 300
Nc1nc(NCCN2CCOCC2)nc(NCc2ccccc2)c1[N+](=O)[O-] [SMR000434816]	26.3
CCC(C)Nc1nc(N)c([N+](=O)[O-])c(Nc2ccccc2OC)n1 (stereo unspecified) [SMR000434817]	0.632
COc1ccc(Nc2nc(N)c([N+](=O)[O-])c(N3CCOCC3)n2)cc1 [SMR000434818]	13.8
Nc1nc(NCc2ccco2)nc(Nc2cccc(F)c2)c1[N+](=O)[O-] [SMR000436034]	> 300
CNc1nc(N)c([N+](=O)[O-])c(Nc2cccc(F)c2)n1 [SMR000436035]	12.4
Nc1nc(NCCCN2CCOCC2)nc(Nc2cccc(F)c2)c1[N+](=O)[O-] [SMR000436037]	87.5
COc1ccccc1Nc1nc(NCc2ccco2)nc(N)c1[N+](=O)[O-] [SMR000436038]	> 300
Cc1ccc(Nc2nc(N)c([N+](=O)[O-])c(NCCO)n2)cc1C [SMR000436043]	14.6
CN(C)c1nc(N)c([N+](=O)[O-])c(NCC2CCCO2)n1 (stereo unspecified) [SMR000436172]	> 300
CNc1nc(N)c([N+](=O)[O-])c(NCC2CCCO2)n1 (stereo unspecified) [SMR000436173]	49.7
COc1ccccc1Nc1nc(NCC(C)C)nc(N)c1[N+](=O)[O-] [SMR000436174]	0.888
CCOCCCn1c(=NC(C)=O)c(C#N)cc2c(=O)n3cccc(C)c3nc21 [SMR000436200]	> 300
CCCn1nc(NC(=O)c2cccs2)c2cc3cc(C)ccc3nc21 [SMR000436650]	> 300
CCN(CC)CCCNc1nc(N)c([N+](=O)[O-])c(NCCO)n1 [SMR000436737]	> 300
Nc1nc(NCc2ccc(Cl)cc2)nc(NCCO)c1[N+](=O)[O-] [SMR000436738]	13.6
CCN1CCN(c2nc(Nc3cc(OC)ccc3OC)nc(Nc3cc(OC)ccc3OC)n2)CC1 [SMR000439674]	> 300
CCCC1=Nc2ncnn2C(c2sccc2C)C1C(=O)OCC (stereo unspecified) [SMR000440057]	> 300
Cc1ccc(S(=O)(=O)CCSc2n[nH]c(=O)n2-c2ccc3c(c2)OCCO3)cc1 [SMR000456166]	74.4
